Reference: US4985409A, “Adenosine derivatives and pharmaceutical composition thereof” (Nippon Zoki Pharmaceutical Co., Ltd., priority 1989, dated 1991)

How the values were obtained:
[1] = system: spontaneously hypertensive rats (SHR); assay: Antihypertensive activity (blood pressure in spontaneously hypertensive rats, oral); type: in vivo; conditions: mean ±S.E.
Method: The test compounds, which were dissolved or suspended in 0.5% C.M.C. aqueous solution, were orally administered to groups of 3 spontaneously hypertensive rats (SHR), 33 to 36 weeks old, which were fasted for 20 hours before drug administration. Blood pressure was measured before and 2 hours after the administration of the test drug.

[2] = Acute toxicity test (oral LD50, death rate for 14 days); conditions: mouse, in vivo, ddY-strain male mice
Method: The test compounds of the present invention, which were dissolved or suspended in 0.5% carboxymethylcellulose (C.M.C.) aqueous solution, were orally administered to groups of 2 to 5 ddY-strain male mice, and the LD50 values were calculated based on the death rate for 14 days thereafter.

[3] = Rattus norvegicus, 2 hours after oral 0.3 mg/kg, read-out: Blood pressure (Decrease %)
[4] = Rattus norvegicus, 2 hours after oral 3 mg/kg, read-out: Blood pressure (Decrease %)

SMILES: CO[C@@H]1[C@H](O)[C@@H](CO)O[C@H]1n1cnc2c(NC3CCCC3)ncnc21 [Compound 1, N^6-cyclopentyl-2'-O-methyladenosine]
- Blood pressure 2 hrs ([1]; 2 hours after oral 0.3 mg/kg): 98 ± 8 mmHg
- inhibition in vivo at 0.3 mg/kg [1, 3]: 56.5 ± 5.5%

SMILES: CO[C@@H]1[C@H](O)[C@@H](CO)O[C@H]1n1cnc2c(NC3CCCCC3)ncnc21 [Compound 2, N^6-cyclohexyl-2'-O-methyladenosine]
- Blood pressure 2 hrs ([1]; 2 hours after oral 0.3 mg/kg): 129 ± 8 mmHg
- inhibition in vivo at 0.3 mg/kg [1, 3]: 37.5 ± 1.7%

SMILES: CO[C@@H]1[C@H](O)[C@@H](CO)O[C@H]1n1cnc2c(NCC(c3ccccc3)c3ccccc3)ncnc21 [Compound 5, N^6-(2,2-diphenylethyl)-2'-O-methyladenosine]
- Blood pressure 2 hrs ([1]; 2 hours after oral 3 mg/kg): 148 ± 19 mmHg
- inhibition in vivo at 3 mg/kg [1, 4]: 30 ± 8.4%

SMILES: CO[C@@H]1[C@H](O)[C@@H](CO)O[C@H]1n1cnc2c(NCc3cccc4ccccc34)ncnc21 [Compound 8, N^6-(1-naphthyl)methyl-2'-O-methyladenosine]
- LD50 at 336 h [2]: 230 mg/kg
- Blood pressure 2 hrs ([1]; 2 hours after oral 3 mg/kg): 140 ± 7 mmHg
- inhibition in vivo at 3 mg/kg [1, 4]: 36.2 ± 5.7%

SMILES: CO[C@@H]1[C@H](O)[C@@H](CO)O[C@H]1n1cnc2c(NC3CCc4ccccc43)ncnc21 (stereo partly shown) [Compound 11, N^6-(2,3-dihydro-1H-indene-1-yl)-2'-O-methyladenosine]
- LD50 at 336 h [2]: 450 mg/kg
- Blood pressure 2 hrs ([1]; 2 hours after oral 3 mg/kg): 133 ± 21 mmHg
- inhibition in vivo at 3 mg/kg [1, 4]: 41.3 ± 7%

SMILES: CO[C@@H]1[C@H](O)[C@@H](CO)O[C@H]1n1cnc2c(NC3Cc4ccccc4C3)ncnc21 [Compound 12, N^6-(2,3-dihydro-1H-indene-2-yl)-2'-O-methyladenosine]
- Blood pressure 2 hrs ([1]; 2 hours after oral 10 mg/kg): 164 ± 5 mmHg
- inhibition in vivo at 10 mg/kg ([1]; Rattus norvegicus, 2 hours after oral 10 mg/kg, read-out: Blood pressure (Decrease %)): 22.7 ± 2.2%

SMILES: CO[C@@H]1[C@H](O)[C@@H](CO)O[C@H]1n1cnc2c(NC3CCCc4ccccc43)ncnc21 (stereo partly shown) [Compound 16, N^6-(1-tetrahydronaphthyl)-2'-O-methyladenosine]
- LD50 at 336 h [2]: 230 mg/kg
- Blood pressure 2 hrs ([1]; 2 hours after oral 3 mg/kg): 109 ± 9 mmHg
- inhibition in vivo at 3 mg/kg [1, 4]: 47.2 ± 4.2%

SMILES: CO[C@@H]1[C@H](O)[C@@H](CO)O[C@H]1n1cnc2c(NC3CCc4ccccc4C3)ncnc21 (stereo partly shown) [Compound 17, N^6-(2-tetrahydronaphthyl)-2'-O-methyladenosine]
- Blood pressure 2 hrs ([1]; 2 hours after oral 3 mg/kg): 187 ± 7 mmHg
- inhibition in vivo at 3 mg/kg [1, 4]: 14.5 ± 1.9%

SMILES: CO[C@@H]1[C@H](O)[C@@H](CO)O[C@H]1n1cnc2c(NC3CCOc4ccccc43)ncnc21 (stereo partly shown) [Compound 24, N^6-(4-chromanyl)-2'-O-methyladenosine]
- LD50 at 336 h [2]: 250 mg/kg
- Blood pressure 2 hrs ([1]; 2 hours after oral 1 mg/kg): 98 ± 15 mmHg
- inhibition in vivo at 1 mg/kg ([1]; Rattus norvegicus, 2 hours after oral 1 mg/kg, read-out: Blood pressure (Decrease %)): 55.4 ± 5.6%
